According to US20230167118A1, “DEGRADATION OF BRUTON'S TYROSINE KINASE (BTK) BY CONJUGATION OF BTK INIDBITORS WITH E3 LIGASE LIGAND AND METHODS OF USE” (BEIGENE, LTD., priority 2020, published 2023):

How the values were obtained:
BTK = target: T1, BTK (Homo sapiens, UniProt Q06187); assay: Cell Degradation: BTK degradation in TMD-8 cells, HTRF assay; assay type: cell-based; details: 6 h treatment, IC50 (DC50) of BTK degradation
T1 construct: High control=Cell group with added DMSO and without compound, indicating microplate readings without BTK degradation; endogenous in cells; host or cells: TMD-8 cells
In short: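 BTK levels read by HTRF (665 vs 620 nm) in lysates of TMD-8 cells after 6 h compound exposure (eight doses, 6-fold steps, 0.2% DMSO). Percent degradation relative to controls; four-parameter curve fitting gave DC50, with Dmax the top degradation.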

HEK-293 cells = assay: HEK-293 Cytotoxicity Assay (CellTiter-Glo); assay type: cell-based; details: Homo sapiens, HEK293, 72 h incubation, CellTiter-Glo luminescence
In short: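 Four-parameter fit of % inhibition gives IC50, from CellTiter-Glo luminescent viability read-out. Cells exposed for 72 h to an 8-point, 4-fold series at 0.2% DMSO.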

T1 sequence (Q06187 whole entry): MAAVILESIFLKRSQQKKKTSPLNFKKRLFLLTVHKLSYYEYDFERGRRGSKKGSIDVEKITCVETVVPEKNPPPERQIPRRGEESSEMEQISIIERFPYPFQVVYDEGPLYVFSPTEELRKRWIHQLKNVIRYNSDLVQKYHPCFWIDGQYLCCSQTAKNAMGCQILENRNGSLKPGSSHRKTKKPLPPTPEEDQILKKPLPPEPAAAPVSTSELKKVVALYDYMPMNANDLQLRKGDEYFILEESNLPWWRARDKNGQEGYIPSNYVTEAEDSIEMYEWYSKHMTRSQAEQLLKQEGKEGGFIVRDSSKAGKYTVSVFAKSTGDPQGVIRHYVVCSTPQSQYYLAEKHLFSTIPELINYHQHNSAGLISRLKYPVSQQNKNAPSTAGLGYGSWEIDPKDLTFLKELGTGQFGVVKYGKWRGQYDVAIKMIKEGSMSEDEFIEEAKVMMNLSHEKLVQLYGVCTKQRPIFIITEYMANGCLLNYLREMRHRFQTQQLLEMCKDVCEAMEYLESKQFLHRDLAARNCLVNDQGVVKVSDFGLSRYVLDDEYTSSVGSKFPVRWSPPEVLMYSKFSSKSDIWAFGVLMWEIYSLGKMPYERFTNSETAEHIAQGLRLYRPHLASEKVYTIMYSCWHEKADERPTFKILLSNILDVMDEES

Cc1cc(-c2ncnc3[nH]c(-c4ccc(N5CCN(CC6CCN(c7ccc(N8CCC(=O)N(C)C8=O)cc7)CC6)CC5)cn4)cc23)ccc1[C@@H](C)NC(=O)c1nc(C(C)(C)C)no1 [Example 110, (R)-3-(tert-butyl)-N-(1-(2-methyl-4-(6-(5-(4-((1-(4-(3-methyl-2,4-dioxotetrahydropyrimidin-1(2H)-yl)phenyl)piperidin-4-yl)methyl)piperazin-1-yl)pyridin-2-yl)-7H-pyrrolo[2,3-d]pyrimidin-4-yl)phenyl)ethyl)-1,2,4-oxadiazole-5-carboxamide]
DC50 (BTK): > 2000 nM | IC50 (HEK-293 cells): > 10 µM

C[C@@H](NC(=O)c1noc(C(C)(C)C)n1)c1ccc(-c2ncnc3[nH]c(-c4ccc(N5CCN(CC6CCN(c7ccc(N8CCC(=O)NC8=O)cc7)CC6)CC5)cn4)cc23)cc1CO [Example 136, (R)-5-(tert-butyl)-N-(1-(4-(6-(5-(4-((1-(4-(2,4-dioxotetrahydropyrimidin-1(2H)-yl)phenyl)piperidin-4-yl)methyl)piperazin-1-yl)pyridin-2-yl)-7H-pyrrolo[2,3-d]pyrimidin-4-yl)-2-(hydroxymethyl)phenyl)ethyl)-1,2,4-oxadiazole-3-carboxamide]
DC50 (BTK): 0.17 nM | IC50 (HEK-293 cells): > 10 µM

Cc1cc(-c2ncnc3[nH]c(-c4ccc(N5CCN(CC6CCN(c7ccc(C8CCC(=O)NC8=O)cc7)CC6)CC5)nc4)cc23)ccc1[C@@H](C)NC(=O)c1nc(C(C)(C)C)no1 (stereo partly drawn) [Example 48, 3-(tert-butyl)-N-((1R)-1-(4-(6-(6-(4-((1-(4-(2,6-dioxopiperidin-3-yl)phenyl)piperidin-4-yl)methyl)piperazin-1-yl)pyridin-3-yl)-7H-pyrrolo[2,3-d]pyrimidin-4-yl)-2-methylphenyl)ethyl)-1,2,4-oxadiazole-5-carboxamide]
DC50 (BTK): 1.7 nM | IC50 (HEK-293 cells): > 10 µM

Cc1cc(-c2ncnc3[nH]c(-c4ccc(C5CCN(CC6CCN(c7ccc(N8CCC(=O)NC8=O)cc7)CC6)CC5)cc4)cc23)ccc1CNC(=O)c1cn(C(C)(C)C)nn1 [Example 40, 1-(tert-butyl)-N-(4-(6-(4-(1-((1-(4-(2,4-dioxotetrahydropyrimidin-1(2H)-yl)phenyl)piperidin-4-yl)methyl)piperidin-4-yl)phenyl)-7H-pyrrolo[2,3-d]pyrimidin-4-yl)-2-methylbenzyl)-1H-1,2,3-triazole-4-carboxamide]
DC50 (BTK): 0.63 nM | IC50 (HEK-293 cells): > 10 µM

CC(C)(C)c1noc(C(=O)NCc2ccc(-c3ncnc4[nH]c(-c5ccc(N6CCN(CC7CCN(c8ccc(N9CCC(=O)NC9=O)cc8)CC7)CC6)cc5)cc34)cc2CO)n1 [Example 109, 3-(tert-butyl)-N-(4-(6-(4-(4-((1-(4-(2,4-dioxotetrahydropyrimidin-1(2H)-yl)phenyl)piperidin-4-yl)methyl)piperazin-1-yl)phenyl)-7H-pyrrolo[2,3-d]pyrimidin-4-yl)-2-(hydroxymethyl)benzyl)-1,2,4-oxadiazole-5-carboxamide]
DC50 (BTK): 0.72 nM | IC50 (HEK-293 cells): > 10 µM

Cc1c([C@@H](C)NC(=O)c2noc(C(C)(C)C)n2)ccc(-c2ncnc3[nH]c(-c4ccc(N5CCN(CC6CCN(c7ccc(N8CCC(=O)NC8=O)cc7)CC6)CC5)nc4)cc23)c1F [Example 140, (R)-5-(tert-butyl)-N-(1-(4-(6-(6-(4-((1-(4-(2,4-dioxotetrahydropyrimidin-1(2H)-yl)phenyl)piperidin-4-yl)methyl)piperazin-1-yl)pyridin-3-yl)-7H-pyrrolo[2,3-d]pyrimidin-4-yl)-3-fluoro-2-methylphenyl)ethyl)-1,2,4-oxadiazole-3-carboxamide]
DC50 (BTK): 1.24 nM | IC50 (HEK-293 cells): > 10 µM

Cc1cc(-c2ncnc3[nH]c(-c4ccc(N5CCN(CC6CCN(c7ccc(N8CCC(=O)NC8=O)cc7)CC6)CC5)cn4)cc23)c(F)cc1[C@@H](C)NC(=O)c1noc(C(C)(C)C)n1 [Example 134, (R)-5-(tert-butyl)-N-(1-(4-(6-(5-(4-((1-(4-(2,4-dioxotetrahydropyrimidin-1(2H)-yl)phenyl)piperidin-4-yl)methyl)piperazin-1-yl)pyridin-2-yl)-7H-pyrrolo[2,3-d]pyrimidin-4-yl)-5-fluoro-2-methylphenyl)ethyl)-1,2,4-oxadiazole-3-carboxamide]
DC50 (BTK): 0.54 nM | IC50 (HEK-293 cells): > 10 µM

Cc1cc(-c2ncnc3[nH]c(-c4ccc(C5CCN(CC6CCN(c7ccc(N8CCC(=O)NC8=O)cc7)CC6)CC5)cc4)cc23)ccc1[C@@H](C)NC(=O)c1nc(C(C)(C)C)no1 [Example 7, (R)-3-(tert-butyl)-N-(1-(4-(6-(4-(1-((1-(4-(2,4-dioxotetrahydropyrimidin-1(2H)-yl)phenyl)piperidin-4-yl)methyl)piperidin-4-yl)phenyl)-7H-pyrrolo[2,3-d]pyrimidin-4-yl)-2-methylphenyl)ethyl)-1,2,4-oxadiazole-5-carboxamide]
DC50 (BTK): 1.3 nM | IC50 (HEK-293 cells): 1.6 µM

Cc1cc(-c2ncnc3[nH]c(-c4ccc(N5CCN(CC6CCN(c7ccc(N8CCC(=O)NC8=O)c(C)c7)CC6)CC5)cn4)cc23)c(F)cc1[C@@H](C)NC(=O)c1noc(C(C)(C)C)n1 [Example 130, (R)-5-(tert-butyl)-N-(1-(4-(6-(5-(4-((1-(4-(2,4-dioxotetrahydropyrimidin-1(2H)-yl)-3-methylphenyl)piperidin-4-yl)methyl)piperazin-1-yl)pyridin-2-yl)-7H-pyrrolo[2,3-d]pyrimidin-4-yl)-5-fluoro-2-methylphenyl)ethyl)-1,2,4-oxadiazole-3-carboxamide]
DC50 (BTK): 0.79 nM | IC50 (HEK-293 cells): > 10 µM

Cc1cc(-c2ncnc3[nH]c(-c4ccc(N5CCN(CC6CCN(c7ccc(N8CCC(=O)NC8=O)c(C)c7)CC6)CC5)nc4)cc23)ccc1[C@@H](C)NC(=O)c1nc(C(C)(C)C)no1 [Example 58, (R)-3-(tert-butyl)-N-(1-(4-(6-(6-(4-((1-(4-(2,4-dioxotetrahydropyrimidin-1(2H)-yl)-3-methylphenyl)piperidin-4-yl)methyl)piperazin-1-yl)pyridin-3-yl)-7H-pyrrolo[2,3-d]pyrimidin-4-yl)-2-methylphenyl)ethyl)-1,2,4-oxadiazole-5-carboxamide]
DC50 (BTK): 1.5 nM | IC50 (HEK-293 cells): > 10 µM

Cc1cc(-c2ncnc3[nH]c(-c4ccc(N5CCN(CC6CCN(c7ccc(N8CCC(=O)NC8=O)cc7)CC6)CC5)nc4)c(F)c23)ccc1[C@@H](C)NC(=O)c1nc(C(C)(C)C)no1 [Example 142, (R)-3-(tert-butyl)-N-(1-(4-(6-(6-(4-((1-(4-(2,4-dioxotetrahydropyrimidin-1(2H)-yl)phenyl)piperidin-4-yl)methyl)piperazin-1-yl)pyridin-3-yl)-5-fluoro-7H-pyrrolo[2,3-d]pyrimidin-4-yl)-2-methylphenyl)ethyl)-1,2,4-oxadiazole-5-carboxamide]
DC50 (BTK): 2.99 nM | IC50 (HEK-293 cells): > 10 µM

Cc1cc(-c2ncnc3[nH]c(-c4ccc(N5CCN([C@H]6C[C@@H](c7ccc(N[C@H]8CCC(=O)NC8=O)cc7)C6)CC5)nc4)cc23)ccc1[C@@H](C)NC(=O)c1nc(C(C)(C)C)no1 [Example 188, 3-(tert-butyl)-N-((R)-1-(4-(6-(6-(4-((1R,3s)-3-(4-(((S)-2,6-dioxopiperidin-3-yl)amino)phenyl)cyclobutyl)piperazin-1-yl)pyridin-3-yl)-7H-pyrrolo[2,3-d]pyrimidin-4-yl)-2-methylphenyl)ethyl)-1,2,4-oxadiazole-5-carboxamide]
DC50 (BTK): 3.03 nM | IC50 (HEK-293 cells): > 10 µM

Cc1cc(-c2ncnc3[nH]c(-c4ccc(N5CCN(CC6CCN(c7ccc(N8CCC(=O)NC8=O)c(C)c7)CC6)CC5)cc4)nc23)ccc1[C@@H](C)NC(=O)c1noc(C(C)(C)C)n1 [Example 73, (R)-5-(tert-butyl)-N-(1-(4-(8-(4-(4-((1-(4-(2,4-dioxotetrahydropyrimidin-1(2H)-yl)-3-methylphenyl)piperidin-4-yl)methyl)piperazin-1-yl)phenyl)-9H-purin-6-yl)-2-methylphenyl)ethyl)-1,2,4-oxadiazole-3-carboxamide]
DC50 (BTK): 1.1 nM | IC50 (HEK-293 cells): > 10 µM

Cc1cc(-c2ncnc3[nH]c(-c4c(C)nn(C5CCN(CC6CCN(c7ccc(N8CCC(=O)NC8=O)cc7)CC6)CC5)c4C)cc23)ccc1[C@@H](C)NC(=O)c1cn(C(C)(C)C)nn1 [Example 121, (R)-1-(tert-butyl)-N-(1-(4-(6-(1-(1-((1-(4-(2,4-dioxotetrahydropyrimidin-1(2H)-yl)phenyl)piperidin-4-yl)methyl)piperidin-4-yl)-3,5-dimethyl-1H-pyrazol-4-yl)-7H-pyrrolo[2,3-d]pyrimidin-4-yl)-2-methylphenyl)ethyl)-1H-1,2,3-triazole-4-carboxamide]
DC50 (BTK): 0.23 nM | IC50 (HEK-293 cells): > 10 µM

Cc1cc(-c2ncnc3[nH]c(-c4ccc(N5CCN(CCC6CCN(c7ccc(N8CCC(=O)NC8=O)c(Cl)c7)CC6)CC5)nc4)cc23)ccc1[C@@H](C)NC(=O)c1nc(C(C)(C)C)no1 [Example 26, (R)-3-(tert-butyl)-N-(1-(4-(6-(6-(4-(2-(1-(3-chloro-4-(2,4-dioxotetrahydropyrimidin-1(2H)-yl)phenyl)piperidin-4-yl)ethyl)piperazin-1-yl)pyridin-3-yl)-7H-pyrrolo[2,3-d]pyrimidin-4-yl)-2-methylphenyl)ethyl)-1,2,4-oxadiazole-5-carboxamide]
DC50 (BTK): 4.7 nM | IC50 (HEK-293 cells): > 10 µM

Cc1cc(-c2ncnc3[nH]c(-c4ccc(N5CCN(CC6CCN(c7ccc(N8CCC(=O)NC8=O)cc7)CC6)CC5)cc4)nc23)ccc1[C@@H](C)NC(=O)c1nc(C(C)(C)C)no1 [Example 25, (R)-3-(tert-butyl)-N-(1-(4-(8-(4-(4-((1-(4-(2,4-dioxotetrahydropyrimidin-1(2H)-yl)phenyl)piperidin-4-yl)methyl)piperazin-1-yl)phenyl)-9H-purin-6-yl)-2-methylphenyl)ethyl)-1,2,4-oxadiazole-5-carboxamide]
DC50 (BTK): 1.4 nM | IC50 (HEK-293 cells): > 10 µM
